Data set [1] concerns B16F10 cells. Description: Transfection of pEGFP-C1 reporter plasmid into B16F10 cells, GFP expression by flow cytometry. The format is cell-based, mouse. How it is done:
(§1) The corresponding cationic lipid (1 mM in methanol) were mixed in different proportions with DOPE (10 mg/mL in chloroform) and the organic solvent removed by evaporation in an oven (37° C.) overnight. The resultant thin films were then hydrated with PBS. The solutions were vortexed (10-20 s) and incubated at ambient temperature for 20 min. Plasmid DNA or siRNA solution (0.04 mg/mL in PBS or another isotonic solution) was subsequently added and the solution vortexed (10-20 s). The lipoplexes were incubated at room temperature for 20 min before being used.
(§2) Human HeLa cells were grown in RPMI supplemented with 4 mM glutamine, 10% FCS and 100 units/ml penicillin/streptomycin (RPMI-CM) until 80% confluence. HEK293 and B16F10 cells were grown in DMEM supplemented with 4 mM glutamine, 10% FCS and 100 units/ml penicillin/streptomycin (DMEM-CM) until 80% confluence. Cells were then suspended using trypsin/EDTA and counted. 2×10^4 cells in 150 μL of media per well were seeded in 96 well plates and incubated overnight. The day afterwards, the different lipoplex formulations were added. Each experiment was performed in quadruplicate, using Effectene® Transfection Reagent (Qiagen), Lipofectamine™ 2000 (Invitrogen) and Fugene (Roche) as positive controls and untreated cells as negative controls. After two days incubation at 37° C. and 5% CO2 (the change of media after transfection was not necessary), the green fluorescent protein (GFP) expression, as a consequence of transfecting the pEGFP-C1, was evidenced using a fluorescent microscope (Leica) and measured by flow cytometry. For the flow cytometry analysis, cells were washed twice with PBS, detached with trypsin/EDTA, harvested with 2% ferum bovine serum (FBS) in PBS, centrifuged and resuspended with 2% FBS in PBS and analyzed using a BD FACSaria flow cytometer. Transfection efficiency was measured as percentage of transfected cells.
(§3) Reagents that obtained greater than 50% transfection were also analyzed against HEK293 and B16F10 cell lines. Transfection results (+ percentages of transfection between 5-25%; ++ percentages of transfection between 25-50%; N.D. not determined). MTT toxicity assay results are indicated between brackets with 100% being cell viability of untreated cells.

Data set [2] relates to B16F10 cells. Description: MTT cell viability assay of transfected B16F10 cells. The format is cell-based, mouse. As to conditions: 100% being cell viability of untreated cells; 24 h after addition of transfection agents. On the procedure:
as §3
(§4) Twenty-four hours after the addition of transfection agents, cell viability was measured using an MTT cell proliferation assay (LGC Promochem, Middlesex, UK), which was performed according to the manufacturer's instructions. Absorbance was read at 570 nm. […] The comparative data obtained with lipids 28a, 29a, 30a and 31a of the invention, Lipofectamine™ 2000, Fugene and Effectene® Transfection Reagent are shown between brackets in Table 2.

Data set [3] concerns HEK293 cells. As to the kind of experiment: Transfection of pEGFP-C1 reporter plasmid into HEK293 cells, GFP expression by flow cytometry. It counts as cell-based, human. On the procedure: as §1, §2, §3
On the technique in general: In flow cytometry, cells or beads pass a laser one at a time.

The subject of data set [4] is HEK293 cells. Description: MTT cell viability assay of transfected HEK293 cells. It counts as cell-based, human. As to conditions: 100% being cell viability of untreated cells; 24 h after addition of transfection agents. On the procedure: as §3, §4
The test system of data set [5] is HeLa cells. Description: Transfection of pEGFP-C1 reporter plasmid into HeLa cells, GFP expression by flow cytometry. It counts as cell-based, human. Particulars: for Transfection efficiency (percentage of transfected cells), HeLa / Transfection results (percentage of transfected cells), HeLa: HeLa cells 48 h after transfection with reporter plasmid, flow cytometry; for Transfection compared with the positive controls: N/P ratio 3, 1:1 mol mixture with DOPE, controls Effectene, Lipofectamine 2000, Fugene. How it is done:
as §1, §2, §3

Data set [6] has as its system HeLa cells. As to the kind of experiment: MTT cell viability assay of transfected HeLa cells. It counts as cell-based, human. As to conditions: 100% being cell viability of untreated cells; 24 h after addition of transfection agents. How it is done: as §3, §4
Background: Tetrazolium assays rely on reduction of a dye to a coloured formazan, in cell work by metabolically active cells.

For the next data set, the system named is mice. Description: In vivo transfection of luciferase-expressing plasmid (pLux) in mice, luminescence imaging. How it is done:
Experiments were performed to transfect a luciferase-expressing plasmid (pLux) by intravenous injection via the vein tail of mice: three transfected with pLux complexed with compound 29a and three (control) with naked pLux. Two days after instillation, firefly luciferin was administrated intraperitoneally and the mice imaged using an IVIS Spectrum.
The mouse depicted on the left was transfected with naked plasmid; the mouse the right was transfected with plasmid complexed with compound 29a. Mice (n=3, per experiment) were anaesthetised and intubated following standard protocols. 16 μg of a luciferase-reporter plasmid were used per mouse. […] Firefly luciferin (15 mg/kg) was administered intraperitoneally to the anesthetized mice 15 min before scanning for luminescence. Imaging was performed on the IVIS Spectrum (Caliper LS) with large binning, open filter for 10 min.

In data set [7] the test system is HeLa cells. As to the kind of experiment: Transfection of fluorescein-labelled siRNA (siGLO) into HeLa cells, flow cytometry. It counts as cell-based, human. As to conditions: 24 h incubation. On the procedure: as §1
Cells were suspended using trypsin/EDTA and counted. 2×10^4 cells in 150 μL of RPMI-CM per well were seeded in 96-well plates and incubated overnight. The day afterwards, the different lipoplex formulations formulated with siGLO (fluorescein-labeled siRNA that localizes within cell nuclei (Dharmacon)) and added to the cells. […] After 24 h incubation at 37° C. and 5% CO2 (change of media after transfection was not necessary), the green fluorescence emitted by intracellular siGLO was imaged under microscope. […] For the flow cytometry analysis, cells were washed twice with PBS, detached with trypsin/EDTA, harvested with 2% FBS in PBS, centrifuged and resuspended with 2% FBS in PBS and analyzed using a BD FACSaria flow cytometer.

The record followed here is patent publication US8759104B2, “Cationic lipids” (The University Court of the University of Edinburgh, priority 2010, dated 2014).

As for `CCCCCCCCCCCCCCCC(=O)NCCN(CCNC(=O)CCCCCCCCCCCCCCC)C(=O)CCC(=O)N[C@@H](CCCNC(=N)N)C(=O)N[C@@H](CCCNC(=N)N)C(=O)N[C@@H](CCCNC(=N)N)C(N)=O.O=C(O)C(F)(F)F.O=C(O)C(F)(F)F.O=C(O)C(F)(F)F` [Compound A3-Sp1-P], in the data set with B16F10 cells [1], the “Transfection efficiency (percentage of transfected cells), B16F10” value turned out to be 56%. Also, in the data set with B16F10 cells [2], the “MTT toxicity assay, cell viability (between brackets), B16F10” value (shortened to “MTT toxicity assay … B16F10”) was found to be 89%. Besides, the “Transfection efficiency (percentage of transfected cells), HEK293” value in the data set with HEK293 cells [3] turned out to be 84%. Besides, the “MTT toxicity assay, cell viability (between brackets), HEK293” value (from here on “MTT toxicity assay … HEK293”) with HEK293 cells [4] came to 95%. Besides, in the data set with HeLa cells [5], the “Transfection efficiency (percentage of transfected cells), HeLa” value is listed as 75%. Also, in the data set with HeLa cells [6], the “MTT toxicity assay, cell viability (between brackets), HeLa” value (“MTT toxicity assay, cell viability … HeLa” for short) is recorded as 93%.

Regarding `CCCCCCCCCCCCCCCC(=O)NCCN(CCNC(=O)CCCCCCCCCCCCCCC)C(=O)CCC(=O)N[C@@H](CCCNC(=N)N)C(=O)N[C@@H](CCCNC(=N)N)C(N)=O.O=C(O)C(F)(F)F.O=C(O)C(F)(F)F` [Compound A2-Sp1-P], in the data set on B16F10 cells [1], the “Transfection efficiency (percentage of transfected cells), B16F10” value stood at 74%. The “MTT toxicity assay … B16F10” value in the data set with B16F10 cells [2] was determined as 98%. Further, in the data set on HEK293 cells [3], the “Transfection efficiency (percentage of transfected cells), HEK293” value came out at 89%. For the same molecule, the “MTT toxicity assay … HEK293” value in the data set with HEK293 cells [4] is given as 97%. Besides, in the data set on HeLa cells [5], the “Transfection efficiency (percentage of transfected cells), HeLa” value came to 85% and the “Transfection compared with the positive controls” value is on record as “more effectively than the positive controls”. In addition, the “MTT toxicity assay, cell viability … HeLa” value in the data set with HeLa cells [6] is reported as 99%.

For `CCCCCCCCCCCCCCCC(=O)NCCN(CCNC(=O)CCCCCCCCCCCCCCC)C(=O)/C=C\C(=O)N[C@@H](CCCNC(=N)N)C(=O)N[C@@H](CCCNC(=N)N)C(N)=O.O=C(O)C(F)(F)F.O=C(O)C(F)(F)F` [Compound A2-Sp2-P], in the data set with B16F10 cells [1], the “Transfection efficiency (percentage of transfected cells), B16F10” value is 78%. Also, in the data set on B16F10 cells [2], the “MTT toxicity assay … B16F10” value is reported as 99%. Moreover, the “Transfection efficiency (percentage of transfected cells), HEK293” value with HEK293 cells [3] was 90%. For the same molecule, in the data set with mice (mice monitored on a daily basis, n=3 per experiment), the “Behaviour of mice during the study” value is “behaved normally”. In addition, the “Luminescence after in vivo transfection of pLux” value with mice (mice, intravenous injection via tail vein, 16 μg plasmid per mouse, imaged 48 hours after transfection) was “Positive luminescence was detected”. Further, the “Location of highest luminescence signal” value with mice (mice, intravenous injection via tail vein, 48 hours after transfection) is “at the point of injection”. For the same molecule, the “MTT toxicity assay … HEK293” value with HEK293 cells [4] was determined as 98%. Besides, in the data set on HeLa cells [5], the “Transfection efficiency (percentage of transfected cells), HeLa” value was 86% and the “Transfection compared with the positive controls” value is “more effectively than the positive controls”. The “MTT toxicity assay, cell viability … HeLa” value with HeLa cells [6] stood at 99%. The “Cells fluorescently labelled after siRNA transfection” value in the data set on HeLa cells [7] is “over 96%”.

As to `CCCCCCCC/C=C\CCCCCCCC(=O)NCCN(CCNC(=O)CCCCCCC/C=C\CCCCCCCC)C(=O)/C=C\C(=O)N[C@@H](CCCNC(=N)N)C(N)=O.O=C(O)C(F)(F)F` [Compound A1-Sp2-O], the “Transfection results (percentage of transfected cells), HeLa” value with HeLa cells [5] was “+ (percentages of transfection between 5-25%)”.

Take `CCCCCCCCCCCCCCCCCCCC(=O)NCCN(CCNC(=O)CCCCCCCCCCCCCCCCCCC)C(=O)/C=C\C(=O)N[C@@H](CCCNC(=N)N)C(=O)N[C@@H](CCCNC(=N)N)C(=O)N[C@@H](CCCNC(=N)N)C(N)=O.O=C(O)C(F)(F)F.O=C(O)C(F)(F)F.O=C(O)C(F)(F)F` [Compound A3-Sp2-A]: the “Transfection results (percentage of transfected cells), HeLa” value with HeLa cells [5] is listed as “+ (percentages of transfection between 5-25%)”.

On to `CCCCCCCCCCCCCCCC(=O)NCCN(CCNC(=O)CCCCCCCCCCCCCCC)C(=O)CCC(=O)N[C@@H](CCCNC(=N)N)C(N)=O.O=C(O)C(F)(F)F` [Compound A1-Sp1-P], for which the “Transfection results (percentage of transfected cells), HeLa” value in the data set on HeLa cells [5] was “+ (percentages of transfection between 5-25%)”.

For `CCCCCCCCCCCCCCCC(=O)NCCCN(CCCNC(=O)CCCCCCCCCCCCCCC)C(=O)/C=C\C(=O)N[C@@H](CCCNC(=N)N)C(N)=O.O=C(O)C(F)(F)F` [Compound A1-Sp4-P], the “Transfection results (percentage of transfected cells), HeLa” value in the data set on HeLa cells [5] is “+ (percentages of transfection between 5-25%)”.

Turning to `CCCCCCCCCCCCCCCC(=O)NCCN(CCNC(=O)CCCCCCCCCCCCCCC)C(=O)/C=C\C(=O)N[C@@H](CCCNC(=N)N)C(=O)N[C@@H](CCCNC(=N)N)C(=O)N[C@@H](CCCNC(=N)N)C(N)=O.O=C(O)C(F)(F)F.O=C(O)C(F)(F)F.O=C(O)C(F)(F)F` [Compound A3-Sp2-P], the “Transfection efficiency (percentage of transfected cells), B16F10” value with B16F10 cells [1] turned out to be 69%. Also, the “MTT toxicity assay … B16F10” value with B16F10 cells [2] worked out at 93%. Further, in the data set on HEK293 cells [3], the “Transfection efficiency (percentage of transfected cells), HEK293” value was determined as 80%. Moreover, the “MTT toxicity assay … HEK293” value with HEK293 cells [4] is on record as 96%. Besides, in the data set with HeLa cells [5], the “Transfection efficiency (percentage of transfected cells), HeLa” value was 70%. Further, the “MTT toxicity assay, cell viability … HeLa” value with HeLa cells [6] came to 92%.
